This passage reports IC50 results from patent US10301278B2, “1-(triazin-3-yl/pyridazin-3-yl)-piper(-azine)idine derivatives and compositions therefor for inhibiting the activity of SHP2” (NOVARTIS AG, priority 2014, dated 2019).

The target in the first assay is SHP2 (Homo sapiens (Human), UniProt Q06124). Briefly: SHP2 allosteric inhibition assay (DiFMUP prompt fluorescence).
Chain of SHP2 (Q06124 whole entry): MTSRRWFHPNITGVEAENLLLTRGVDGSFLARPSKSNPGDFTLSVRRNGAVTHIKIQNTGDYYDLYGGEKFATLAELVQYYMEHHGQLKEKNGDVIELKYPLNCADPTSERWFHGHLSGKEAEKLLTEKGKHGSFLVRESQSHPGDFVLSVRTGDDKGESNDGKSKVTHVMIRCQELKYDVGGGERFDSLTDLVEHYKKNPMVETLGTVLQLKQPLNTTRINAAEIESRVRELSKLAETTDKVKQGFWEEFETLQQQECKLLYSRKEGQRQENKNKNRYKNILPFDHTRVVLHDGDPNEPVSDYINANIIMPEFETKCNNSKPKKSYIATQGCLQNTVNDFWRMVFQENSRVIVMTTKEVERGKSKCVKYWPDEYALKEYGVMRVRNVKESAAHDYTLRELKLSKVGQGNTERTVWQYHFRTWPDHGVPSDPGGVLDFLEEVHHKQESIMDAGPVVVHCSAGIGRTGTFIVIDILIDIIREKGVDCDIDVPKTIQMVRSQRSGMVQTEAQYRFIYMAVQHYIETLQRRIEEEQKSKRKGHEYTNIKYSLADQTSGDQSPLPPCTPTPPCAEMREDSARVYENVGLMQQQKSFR
Conditions: not given
It is filed as biochemical. On the procedure:
SHP2 is allosterically activated through binding of bis-tyrosyl-phorphorylated peptides to its Src Homology 2 (SH2) domains. The latter activation step leads to the release of the auto-inhibitory interface of SHP2, which in turn renders the SHP2 protein tyrosine phosphatase (PTP) active and available for substrate recognition and reaction catalysis. The catalytic activity of SHP2 was monitored using the surrogate substrate DiFMUP in a prompt fluorescence assay format.
After 30-60 minutes incubation at 25° C., the surrogate substrate DiFMUP (Invitrogen, cat#D6567) was added to the reaction and incubated at 25° C. for 30 minutes. […] The fluorescence signal was monitored using a microplate reader (Envision, Perki-Elmer) using excitation and emission wavelengths of 340 nm and 450 nm, respectively. The inhibitor dose response curves were analyzed using normalized IC50 regression curve fitting with control based normalization.
Molecule `CC1(N)CCN(c2cnc(Sc3cccc(Cl)c3Cl)c(N)n2)CC1` [Example 1, 6-(4-amino-4-methylpiperidin-1-yl)-3-((2,3-dichlorophenyl)thio)pyrazin-2-amine] had an IC50 of 29 nM.

Still in this assay, the particulars now being: 0.5 nM SHP2 activated with 0.5 μM peptide IRS1_pY1172(dPEG8)pY1222; substrate DiFMUP; 25° C.; read-out: IC50.
On to `CC1(N)CCN(c2cnc(Sc3ccccc3Cl)c(N)n2)CC1` [Example 2], for which the IC50 turned out to be 70 nM. The same measure, in the same setting: in the case of `CC1(N)CCN(c2cnc(Sc3ccccc3C(F)(F)F)c(N)n2)CC1` [Example 4, 6-(4-amino-4-methylpiperidin-1-yl)-3-((2-(trifluoromethyl)phenyl)thio)pyrazin-2-amine] it was 59 nM.

As for `CC1(N)CCN(c2cnc(Sc3cc(Cl)ccc3Cl)c(N)n2)CC1` [Example 5], the IC50 was found to be 1080 nM. On to `CC1(N)CCN(c2cnc(Sc3ccc(Cl)cc3Cl)c(N)n2)CC1` [Example 6], for which the IC50 stood at 210 nM.

Turning to `COc1ccc(Cl)c(Sc2ncc(N3CCC(C)(N)CC3)nc2N)c1` [Example 7], the IC50 stood at 13700 nM. For the molecule `CC1(N)CCN(c2cnc(Oc3cccc(Cl)c3Cl)c(N)n2)CC1` [Example 8], the IC50 is 64400 nM. Turning to `CC1(N)CCN(c2cnc(Sc3cc(O)ccc3Cl)c(N)n2)CC1` [Example 9, 3-((3-amino-5-(4-amino-4-methylpiperidin-1-yl)pyrazin-2-yl)thio)-4-chlorophenol], the IC50 came out at 307 nM. For the molecule `COc1cccc(Sc2ncc(N3CCC(C)(N)CC3)nc2N)c1Cl` [Example 10, 6-(4-amino-4-methylpiperidin-1-yl)-3-((2-chloro-3-methoxyphenyl)thio)pyrazin-2-amine], the IC50 came to 56 nM. Regarding `CC1(N)CCN(c2cnc(Sc3cccc(NC(=O)c4ccc5ccccc5c4)c3Cl)c(N)n2)CC1` [Example 13], the IC50 was 257 nM. As for `CC1(N)CCN(c2nnc(Sc3cccc(Cl)c3Cl)c(N)n2)CC1` [Example 14, 3-(4-amino-4-methylpiperidin-1-yl)-6-((2,3-dichlorophenyl)thio)-1,2,4-triazin-5-amine], the IC50 was determined as 143 nM. As to `CC1(N)CCN(c2nnc(Sc3ccccc3Cl)c(N)n2)CC1` [Example 15], the IC50 amounted to 266 nM. In the case of `CC1(CN)CCN(c2cnc(Sc3cccc(N)c3Cl)c(N)n2)CC1` [Example 20], the IC50 worked out at 22 nM. `CC1(N)CCN(c2cnc(Sc3cccc(N)c3C(F)(F)F)c(N)n2)CC1` [Example 21]: the half-maximal inhibitory concentration (IC50) came out at 46 nM. With `CC1(N)CCN(c2cnc(Sc3ccc(Br)cc3Cl)c(N)n2)CC1` [Example 22], the IC50 turned out to be 44 nM. On to `CC1(N)CCN(c2cnc(Sc3ccc(F)cc3Cl)c(N)n2)CC1` [Example 23], for which the IC50 came out at 51 nM. As to `C[C@@]1(N)CCN(c2cnc(Sc3cccc(Cl)c3Cl)c(N)n2)C[C@H]1O` [Example 24], the IC50 came to 49 nM. In the case of `CC1(N)CCN(c2cnc(Sc3ccc(F)cc3C(F)(F)F)c(N)n2)CC1` [Example 26], the 50% inhibitory concentration (IC50) was determined as 67 nM.

Turning to `NCC1(c2cccnc2)CCN(c2cnc(Sc3cccc(Cl)c3Cl)c(N)n2)CC1` [Example 28, 6-(4-(aminomethyl)-4-(pyridin-3-yl)piperidin-1-yl)-3-((2,3-dichlorophenyl)thio)pyrazin-2-amine], the IC50 turned out to be 54 nM. On the same count and under the same terms, the figure for `CC1(N)CCN(c2cnc(Sc3cccnc3C(F)(F)F)c(N)n2)CC1` [Example 30] is 66 nM; for `Nc1cccc(Sc2ncc(N3CCC(N)(CO)CC3)nc2N)c1Cl` [Example 32] it is 195 nM. As for `CC1(CN)CCN(c2nc(N)c(Sc3cccc(Cl)c3Cl)nc2C(N)=O)CC1` [Example 33, 5-amino-3-(4-(aminomethyl)-4-methylpiperidin-1-yl)-6-((2,3-dichlorophenyl)thio)pyrazine-2-carboxamide], the IC50 is 19 nM. Turning to `CC1(CN)CCN(c2nc(N)c(Sc3cccnc3C(F)(F)F)nc2C(N)=O)CC1` [Example 35], the half-inhibitory concentration (IC50) came out at 109 nM. Turning to `CC1(N)CCN(c2cnc(Sc3ccncc3Cl)c(N)n2)CC1` [Example 36, 6-(4-amino-4-methylpiperidin-1-yl)-3-((3-chloropyridin-4-yl)thio)pyrazin-2-amine], the IC50 stood at 76 nM.

`CC1(N)CCN(c2cnc(Sc3ccnc(C(F)(F)F)c3Cl)c(N)n2)CC1` [Example 37]: the IC50 was found to be 82 nM.

Consider `CC1(N)CCN(c2cnc(Sc3ccc(-c4nn[nH]n4)cc3Cl)c(N)n2)CC1` [Example 38, 6-(4-amino-4-methylpiperidin-1-yl)-3-((2-chloro-4-(2H-tetrazol-5-yl)phenyl)thio)pyrazin-2-amine], for which the IC50 stood at 23 nM. On the same count and under the same terms, the figure for `CC1(CN)CCN(c2cnc(Sc3cccnc3Cl)c(N)n2)CC1` [Example 39, 6-(4-(aminomethyl)-4-methylpiperidin-1-yl)-3-((2-chloropyridin-3-yl)thio)pyrazin-2-amine] is 26 nM. Turning to `NCC1(c2cscn2)CCN(c2cnc(Sc3cccnc3C(F)(F)F)c(N)n2)CC1` [Example 40, 6-(4-(aminomethyl)-4-(thiazol-4-yl)piperidin-1-yl)-3-((2-(trifluoromethyl)pyridin-3-yl)thio)pyrazin-2-amine], the IC50 came to 79 nM. Still for that read-out and setting: the figure for `CC1(CN)CCN(c2cnc(Sc3ccnc(N)c3Cl)c(N)n2)CC1` [Example 42, 3-((2-amino-3-chloropyridin-4-yl)thio)-6-(4-(aminomethyl)-4-methylpiperidin-1-yl)pyrazin-2-amine] is 23 nM. Turning to `CC1(CN)CCN(c2cnc(Sc3ccnc(Cl)c3Cl)c(N)n2)CC1` [Example 43, 6-(4-(aminomethyl)-4-methylpiperidin-1-yl)-3-((2,3-dichloropyridin-4-yl)thio)pyrazin-2-amine], the IC50 came to 14 nM. `NCC1(F)CCN(c2cnc(Sc3cccc(N)c3Cl)c(N)n2)CC1` [Example 44, 3-((3-amino-2-chlorophenyl)thio)-6-(4-(aminomethyl)-4-fluoropiperidin-1-yl)pyrazin-2-amine]: the IC50 was 271 nM. For the molecule `CC1(CN)CCN(c2cnc(Sc3cccnc3C(F)(F)F)c(N)c2)CC1` [Example 45], the IC50 was 351 nM. Regarding `NCC1CCCN(c2cnc(Sc3cccnc3C(F)(F)F)c(N)n2)C1` (stereo not drawn) [Example 46], the concentration for half-maximal inhibition (IC50) is 459 nM.

With `NCC1(O)CCN(c2cnc(Sc3cccc(N)c3Cl)c(N)n2)CC1` [Example 47], the IC50 stood at 382 nM.

As to `CC1(CN)CCN(c2cnc(Sc3ccncc3F)c(N)n2)CC1` [Example 48], the IC50 came to 177 nM. As for `CC1(CN)CCN(c2cnc(Sc3ccnc(Cl)c3Cl)c(N)n2)CC1` [Example 49], the IC50 was found to be 100 nM. In the case of `CCC1(CN)CCN(c2cnc(Sc3ccnc(N)c3Cl)c(N)n2)CC1` [Example 50], the half-inhibitory concentration (IC50) is 59 nM. For `CCCC1(CN)CCN(c2cnc(Sc3ccnc(N)c3Cl)c(N)n2)CC1` [Example 51], the IC50 amounted to 17 nM. For `Nc1nc(N2CCC(N)(CO)CC2)cnc1Sc1ccnc(Cl)c1Cl` [Example 52, (4-amino-1-(6-amino-5-((2,3-dichloropyridin-4-yl)thio)pyrazin-2-yl)piperidin-4-yl)methanol], the IC50 was determined as 62 nM. As to `Nc1nc(N2CCC(N)(CO)CC2)cnc1Sc1ccnc(N)c1Cl` [Example 53], the IC50 is 315 nM. Still for that read-out and setting: in the case of `Nc1nc(N2CCC(N)(CO)CC2)cnc1Sc1cccnc1C(F)(F)F` [Example 54] it was 170 nM; in that of `CC1(CN)CCN(c2cnc(Sc3cc(N)nc(Cl)c3Cl)c(N)n2)CC1` [Example 55], 17.7 nM.

The IC50 is the point on the concentration scale where inhibition reaches its midpoint.
